Source: US20100168112A1, “2-Substituted and 4-substituted aryl nitrone compounds” (RENOVIS, INC., priority 2004, published 2010)

Tested on: 1K1C rats
Assay: Kidney ischemia-reperfusion injury, one-kidney one-clip (1K1C) model, fractional excretion of sodium
Assay type: in vivo
Method: Rats were individually housed in a modified cage that was equipped with a raised mesh bottom to separate the fecal product from urine. Before the test, all animals were withheld from food and water overnight. In the morning of the test, normal saline (i.e., 0.9% sodium chloride) was given via oral gavage at […] (Lipschitz, W. L. Hadidian, Z. & Kerpcar, A.: Bioassay of diuretics., J. Pharmacol. Exp. Ther., 79: 97-110, 1943). Samples of blood and urine were collected (standard procedures) at time points (1 and/or 5 hrs after fluid intake) from animals, centrifuged, and kept at 4 degrees until analysis for factors that reflect renal functions. Sodium and creatinine levels were determined by Quality Clinical Labs, Inc. (Mountain View, Calif.). Sodium concentrations were determined by ion selective electrode (standard procedures). Creatinine levels were determined by the alkaline picrated (Jaffe) reaction as described (Liobat-Estelles, M., Sevillano-Cabeja, A. & Campines-Falco, P.: Kinetic chemometric studies of the determination of creatinine using the Jaffe reaction. Part I: kinetics of the reaction; analytical conclusion. Analyst, 11: 597-602, 1989). Fractional excretion of sodium (FENa+), a parameter for ion-handling by the kidney, was calculated, using the following equation: =UNa×Pcr/PNa×Ucr, where UNa is the concentration of sodium in urine; Pcr is the plasma concentration of creatinine; PNa is the […]; and Ucr is the concentration of creatinine in the urine.
After the data for the calculation of basal levels of FENa+ was obtained (Table 16), rats were anesthetized with pentobarbital (65 mg/kg, i.p.). The abdominal region was shaved with a safety razor and sterilized with povidone iodine solution. A midline incision was made and the right kidney was exposed. The right renal pedicle and right urether were both ligated twice with 4-0 sutures and cut between the ligations. The right kidney was then removed. 7 days later, these rats, after another overnight food-water deprivation, were randomly assigned into 3 groups and orally given either Compound 62 (50 mg/kg, at the volume of 1 ml/kg,p.o.) or its vehicle (i.e., 96% of 0.5% CMC and 4 of 20% Tween 80, at the volume of 1 ml/kg, p.o.) 1 hr before kidney ischemia was produced. Positive controls were performed using quercetin (30 mg/kg, i.p.) given 2 hrs before ischemia (Kahraman, A., Erkasap, N., Serteser, M. & Koken, T.: Protective effect of quercetin on renal ischemia/reperfusion injury in rats. J. Nephrol., 16: 219-224, 2003). Animals were then anesthetized and had their left kidneys exposed after opening of their abdominal cavities. A non-traumatic vascular clamp was applied to the left renal pedicle (the ischemia phase), which was released 45 min later (the reperfusion phase). Lipschitz test was then conducted to measure ion-handling capabilities. Normal saline was orally administered at […] as soon as the vascular clamp was released. 60- and 300-min after reperfusion, plasma and urine samples were obtained.

[1] = 1K1C rats, Compound 62 50 mg/kg p.o. 1 hr before ischemia, quercetin 30 mg/kg i.p. 2 hrs before, 45 min ischemia, mean ± SEM

CC(C)(C)/[N+]([O-])=C/c1ccc(S(C)(=O)=O)cc1 [Compound 62, N-tert-Butyl-C-[4-(methanesulfonyl)phenyl]nitrone]
effect on FENa+ compared with the vehicle treatment group (in words) (1K1C rats, 50 mg/kg p.o., acutely dosed): significantly enhanced FENa+ 5-hr after reperfusion
1-hr post-ischemic FENa+ (%) [1]: 0.52 ± 0.29%
5-hr post-ischemic FENa+ (%) [1]: 2.52 ± 0.5%
FENa+ (%) pre-surgery (basal) levels (rats before 1K1C modeling, group baseline, mean ± SEM): 1.71 ± 0.36%
